Data from patent publication US20060116410A1, “4-Aminomethyl benzamidine derivatives” (priority 2004, published 2006).
Where a name gives a salt, the structure may show the parent alone.

The compounds below were run against T1, factor VIIa/tissue factor complex (Homo sapiens, UniProt P08709) (assay: Inhibition of amidolytic activity of factor VIIa/tissue factor complex, chromogenic substrate Chromozym-tPA). Settings: 26 nM tissue factor, 9 nM soluble factor VIIa, room temperature, pH 7.5.
T1 construct: 9 nM of soluble factor VIIa
T1 sequence (P08709 213-466 limits assumed): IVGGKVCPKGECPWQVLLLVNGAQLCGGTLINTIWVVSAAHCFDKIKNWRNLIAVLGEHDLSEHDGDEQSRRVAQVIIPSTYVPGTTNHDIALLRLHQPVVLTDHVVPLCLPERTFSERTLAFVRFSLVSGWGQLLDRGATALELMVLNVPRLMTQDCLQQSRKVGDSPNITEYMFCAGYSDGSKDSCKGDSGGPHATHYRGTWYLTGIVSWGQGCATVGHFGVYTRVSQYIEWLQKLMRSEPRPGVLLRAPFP
T1 sequence (P08709 61-212 limits assumed): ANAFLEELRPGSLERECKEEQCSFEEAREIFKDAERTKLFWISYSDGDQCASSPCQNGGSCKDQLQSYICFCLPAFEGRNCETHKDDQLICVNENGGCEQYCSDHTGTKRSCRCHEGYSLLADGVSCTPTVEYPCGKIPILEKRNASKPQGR
T1 sequence (P13726 33-295 partner): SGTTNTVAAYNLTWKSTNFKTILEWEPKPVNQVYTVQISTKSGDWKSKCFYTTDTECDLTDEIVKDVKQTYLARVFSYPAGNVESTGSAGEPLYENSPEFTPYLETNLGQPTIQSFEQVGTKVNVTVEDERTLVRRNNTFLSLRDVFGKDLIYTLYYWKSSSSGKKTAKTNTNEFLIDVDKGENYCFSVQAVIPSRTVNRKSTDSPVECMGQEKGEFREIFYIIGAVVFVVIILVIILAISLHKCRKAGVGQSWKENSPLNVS
Assay type: biochemical
Method: Measurements were carried out by an automated robotic assay on microtitre plates at room temperature. To this end, 100 μl of a solution of 26 nM of tissue factor, 9 nM of soluble factor VIIa and 8 mM of calcium chloride were added to 25 μl of a solution of the inhibitor in a buffer [pH 7.5, 100 mM, comprising 0.14M NaCl, 0.1M N-(2-hydroxyethyl)piperazine-N′-(2-ethanesulphonic acid) (HEPES), 0.5 mg/l of fatty-acid-free BSA (bovine serum albumin) and 0.05% NaN3] in each well of the plate. After an incubation time of 15 minutes the reaction was started by the addition of 50 μl of chromogenic substrate Chromozym-tPA (3.5 mM, MeSO2-D-Phe-Gly-Arg-paranitroamlide) and the hydrolysis of the substrate was followed spectrophotometrically on a kinetic microtitre plate reader over 10 minutes. Using the plot of the inhibition curves, the Ki values were determined according to the method described in Biochem. J. 55, 1953, 170-171.
With `CCOC(=O)CNc1cc(C(=N)N)ccc1CNC(=O)c1cccc(C)c1` [Example 24.1, {5-carbamimidoyl-2-[(3-methyl-benzoylamino)-methyl]-phenylamino}-acetic acid ethyl ester hydrochloride] the Ki was 81 nM.
`Cc1cc(C(=O)NCc2ccc(C(=N)N)cc2OCCNC(=O)c2ccccc2F)ccc1F` [Example 42.2, N-{4-carbamimidoyl-2-[2-(2-fluoro-benzoylamino)-ethoxy]-benzyl}-4-fluoro-3-methyl-benzamide hydrochloride] was tested, and the Ki was 51 nM.
In the case of `CNC(=O)COc1cc(C(=N)N)ccc1CNC(=O)c1cc(Cl)cc(Cl)c1` [Example 18.2, N-(4-carbamimidoyl-2-methylcarbamoylmethoxy-benzyl)-3,5-dichloro-benzamide hydrochloride], the Ki is reported as 62 nM.
